Test results: patent US20160030407A1, “Method of Treating Inflammatory Lung Disease” (priority 2010, published 2016)
Several values for one entry are separate records, joined by “and”; a condition that tells them apart may be missing. Identical values can stand only once.

Columns and labels:
[1] = Treatment of a patient with autism and a seizure disorder; type: in vivo, human; conditions: one patient, 1.0 mg three times per day
From the text: A patient, who was diagnosed with autism and a seizure disorder, had brain surgery and began rehabilitation the following month.

[2] = tested on: antibodies against thyroglobulin; test: Autoimmune thyroiditis model (Example 16B): thyroglobulin antibodies; type: in vivo, CBA/J mice; conditions: 0.05 mg/ml in drinking water; day 21
Protocol: In another experiment, eighteen CBA/J female mice were immunized with mouse thyroglobulin, emulsified in complete Freund's adjuvant, on day 0 and day 7. One group of mice (n=10) drank regular water. […] Mice were sacrificed 21 days after the first immunization to collect the thyroid gland and the blood. The thyroid was analyzed for the presence of infiltrating mononuclear cells. The blood was analyzed for the levels of antibodies against thyroglobulin.

[3] = tested on: antibodies to PPD and thyroglobulin; test: Experimental Autoimmune Thyroiditis (Example 16A): serum antibodies to PPD and thyroglobulin; type: in vivo, mice
Protocol: (§1) Thyroiditis was induced by injection of thyroglobulin emulsified in complete Freund's adjuvant […]. On days 0 and 7, female mice received subcutaneous injection of 100 μg thyroglobulin (2 injections of 50 μg each). Control mice drank water. […] Mice were sacrificed on day 21.
Serum from control and anatabine-treated mice was examined to determine levels of antibodies to a foreign antigen (PPD).
Levels of antibodies to thyroglobulin were examined on days 7, 14, and 21 after immunization.

[4] = biological target: T1, nAChR α4/β2 (Homo sapiens, UniProt P17787+P43681); test: nAChR α4/β2 channel agonist assay (FLIPR); type: cell-based; conditions: 0.3-1000 μM
T1 construct: host or cells: HEK293 cells, transient
Protocol: Briefly, cells were incubated with […] dye for 30 min at 37° C.

[5] = tested on: phosphorylated p65 (NFκB); test: p65 phosphorylation in brain after intracranial TNFα; type: in vivo, mice (B6/SJL); conditions: mice, 2 mg/kg i.p., normalized to actin
Protocol: After 5 minutes, mice were intracranially injected with 0.5 mg of TNFα. Mice were euthanized ten minutes after the intracranial injection. The portion of the brain surrounding the intracranial site of injection was collected, and proteins were extracted. Phosphorylation of p65 was measured with an antibody towards phosphorylated p65.

[6] = Single i.v. dose toxicity: clinical chemistry; type: in vivo, Sprague-Dawley rats
From the text: On day 15, urine was collected on all surviving animals for urinalysis. The animals were euthanized and bled via cardiac puncture. Blood was collected for hematology, clinical chemistry, and coagulation analysis. Tissues were collected, weighed, and stored in 10% neutral-buffered formalin for possible future analysis.

[7] = tested on: autoimmune thyroiditis; test: Experimental Autoimmune Thyroiditis (Example 16A): thyroid histopathology; type: in vivo, mice; conditions: 0.05 mg/ml in drinking water (approx. 12.5 mg/kg/day); day 21; p=0.05
Protocol: as §1
Thyroid glands were removed. One lobe was fixed in formalin for histopathology. One lobe was frozen for immunohistochemistry. The extent of lymphocytic infiltration and destruction of the thyroid gland was assessed digitally. Initially, the entire thyroid lobe was examined. […] The final score was expressed as the percent of the thyroid area infiltrated by lymphocytes and damaged. The results are shown graphically in FIG. 42. […] Photomicrographs of hematoxylin- and eosin-stained thyroids from control and anatabine-treated mice are shown in FIG. 43A (control) and FIG. 43B (anatabine-treated).

[8] = tested on: BACE-1; test: BACE-1 protein expression in SHSY cells (Western blot); type: cell-based, human; conditions: 24 hours, corrected for actin
[9] = tested on: T cells, antigen presentation; test: Experimental Autoimmune Thyroiditis (Example 16A): lymphoid typing by flow cytometry; type: in vivo, mice; conditions: p=0.0143
Protocol: as §1
Cervical lymph nodes were removed for lymphoid typing by flow cytometry. Spleen and peritoneal macrophages were removed for ex vivo stimulation.

[10] = 0.1 mg/kg anatabine, nicotine 0.75 mg/kg
[11] = 0.1 mg/kg, gender F, group mean
[12] = 0.1 mg/kg, gender M, group mean
[13] = 0.75 mg/kg, gender F, group mean
[14] = 0.75 mg/kg, gender M, group mean
[15] = Anatabine 0.1 mg/kg single i.v. dose, female rats, individual animals B6-B10
[16] = Anatabine 0.1 mg/kg single i.v. dose, male rats, individual animals B1-B5
[17] = Anatabine 0.1 mg/kg, M, Mean, n 5
[18] = Anatabine 0.75 mg/kg single i.v. dose, female rats, individual animals C6-C10
[19] = Anatabine 0.75 mg/kg single i.v. dose, male rats, individual animals C1-C5
[20] = Anatabine 0.75 mg/kg, F, Mean, n 5

T1 sequence (P43681 29-627): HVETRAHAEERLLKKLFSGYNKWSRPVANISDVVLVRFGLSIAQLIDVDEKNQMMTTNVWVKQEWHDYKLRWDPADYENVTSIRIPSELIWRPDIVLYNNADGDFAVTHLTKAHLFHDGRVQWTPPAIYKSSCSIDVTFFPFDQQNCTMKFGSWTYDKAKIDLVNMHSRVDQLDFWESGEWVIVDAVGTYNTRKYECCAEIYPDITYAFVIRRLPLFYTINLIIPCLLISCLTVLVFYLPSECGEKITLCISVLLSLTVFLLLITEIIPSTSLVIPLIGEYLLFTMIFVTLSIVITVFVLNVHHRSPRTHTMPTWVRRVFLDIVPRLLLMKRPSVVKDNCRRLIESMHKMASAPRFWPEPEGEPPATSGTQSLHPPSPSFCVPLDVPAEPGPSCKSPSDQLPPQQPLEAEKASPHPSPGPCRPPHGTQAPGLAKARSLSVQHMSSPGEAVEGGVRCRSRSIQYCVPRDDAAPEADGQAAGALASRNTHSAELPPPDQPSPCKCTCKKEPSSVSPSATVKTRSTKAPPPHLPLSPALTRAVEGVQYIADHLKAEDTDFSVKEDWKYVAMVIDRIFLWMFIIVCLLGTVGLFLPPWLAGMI
T1 sequence (P17787 26-502): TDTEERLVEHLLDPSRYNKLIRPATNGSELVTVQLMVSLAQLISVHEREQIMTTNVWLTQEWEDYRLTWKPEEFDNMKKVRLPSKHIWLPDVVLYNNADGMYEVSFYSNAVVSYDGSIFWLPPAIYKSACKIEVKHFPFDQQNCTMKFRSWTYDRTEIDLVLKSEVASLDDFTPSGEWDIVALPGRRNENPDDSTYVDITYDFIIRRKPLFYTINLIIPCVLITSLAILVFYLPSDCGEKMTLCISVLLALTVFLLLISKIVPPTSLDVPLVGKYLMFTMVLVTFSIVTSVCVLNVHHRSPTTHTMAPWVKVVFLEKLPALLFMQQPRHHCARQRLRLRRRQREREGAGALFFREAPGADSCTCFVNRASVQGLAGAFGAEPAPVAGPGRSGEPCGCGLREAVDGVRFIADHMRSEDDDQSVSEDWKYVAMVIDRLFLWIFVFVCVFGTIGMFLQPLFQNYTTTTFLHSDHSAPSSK

C1=CCC(c2cccnc2)NC1 (racemic) [Anatabine, 1,2,3,6-tetrahydro-[2,3′]bipyridinyl]
cognitive benefits [1]: improved communication and language skills and the ability to focus
frequency of seizures ([1]; over 3 weeks): decreased from one per day to approximately one per week
levels of thyroglobulin antibodies [2]: no effect on the levels of thyroglobulin antibodies
antibodies to PPD vs control ([3]; 0.05 mg/ml in drinking water): no significant difference
antibodies to thyroglobulin vs control ([3]; day 7): no significant difference
antibodies to thyroglobulin vs control ([3]; day 14, p=0.086): tended to have lower thyroglobulin antibodies
antibodies to thyroglobulin vs control ([3]; day 21): no significant difference
agonist activity [4]: full agonist activity
p65 phosphorylation in brain [5]: reduced p65 phosphorylation in mouse brain
globulins vs vehicle controls, females [6, 10]: slightly higher
total protein vs vehicle controls, females [6, 10]: somewhat higher
AST [6, 11]: 77.00 IU/L
DIR BILIRUBIN [6, 11]: 0.00 mg/dL
TOT BILIRUBIN [6, 11]: 0.00 mg/dL
AST [6, 12]: 96.00 IU/L
BUN [6, 12]: 18.00 mg/dL
DIR BILIRUBIN [6, 12]: 0.00 mg/dL
TOT BILIRUBIN [6, 12]: 0.00 mg/dL
TOT PROTEIN [6, 12]: 6.10 g/dL
DIR BILIRUBIN [6, 13]: 0.00 mg/dL
TOT BILIRUBIN [6, 13]: 0.00 mg/dL
DIR BILIRUBIN [6, 14]: 0.02 mg/dL
TOT BILIRUBIN [6, 14]: 0.02 mg/dL
ALBUMIN [6, 15]: 3.6 g/dL (3×) and 3.5 g/dL and 3.8 g/dL
ALK PHOSPHATASE [6, 15]: 140 IU/L and 220 IU/L
ALT [6, 15]: 57 IU/L and 43 IU/L and 47 IU/L and 62 IU/L and 39 IU/L
AST [6, 15]: 78 IU/L and 69 IU/L and 70 IU/L and 86 IU/L and 82 IU/L
BUN [6, 15]: 21 mg/dL (2×) and 19 mg/dL (3×)
CHLORIDE [6, 15]: 99 mEq/L and 97 mEq/L
CHOLESTEROL [6, 15]: 90 mg/dL and 74 mg/dL and 65 mg/dL and 66 mg/dL and 87 mg/dL
CREATININE [6, 15]: 0.4 mg/dL (3×) and 0.5 mg/dL (2×)
DIR BILIRUBIN [6, 15]: 0 mg/dL
GLOBULIN [6, 15]: 3.1 g/dL (3×) and 3 g/dL
GLUCOSE [6, 15]: 170 mg/dL and 220 mg/dL
PHOSPHORUS [6, 15]: 8.5 mg/dL (2×) and 8.2 mg/dL and 7.4 mg/dL and 7.8 mg/dL
POTASSIUM [6, 15]: 5.4 mEq/L and 6.3 mEq/L and 5.2 mEq/L and 5.5 mEq/L and 6.7 mEq/L
TOT BILIRUBIN [6, 15]: 0 mg/dL
TOT PROTEIN [6, 15]: 6.7 g/dL (2×) and 6.3 g/dL and 6.9 g/dL and 6.6 g/dL
ALBUMIN [6, 16]: 3.4 g/dL (2×) and 3.2 g/dL and 3.1 g/dL (2×)
ALK PHOSPHATASE [6, 16]: 470 IU/L
ALT [6, 16]: 92 IU/L and 65 IU/L and 74 IU/L and 44 IU/L and 78 IU/L
AST [6, 16]: 97 IU/L and 99 IU/L and 93 IU/L and 85 IU/L
BUN [6, 16]: 18 mg/dL (2×) and 21 mg/dL and 14 mg/dL and 19 mg/dL
CHLORIDE [6, 16]: 98 mEq/L and 97 mEq/L (2×) and 99 mEq/L (2×)
CHOLESTEROL [6, 16]: 65 mg/dL and 64 mg/dL and 75 mg/dL and 56 mg/dL and 76 mg/dL
CREATININE [6, 16]: 0.4 mg/dL (3×) and 0.3 mg/dL (2×)
DIR BILIRUBIN [6, 16]: 0 mg/dL
GLOBULIN [6, 16]: 2.9 g/dL (2×) and 2.6 g/dL and 3.1 g/dL
GLUCOSE [6, 16]: 210 mg/dL
POTASSIUM [6, 16]: 5.9 mEq/L and 6.5 mEq/L and 6.6 mEq/L and 6.9 mEq/L and 6.1 mEq/L
TOT BILIRUBIN [6, 16]: 0 mg/dL
TOT PROTEIN [6, 16]: 6.3 g/dL (2×) and 5.8 g/dL and 5.9 g/dL and 6.2 g/dL
CREATININE ([6]; Anatabine 0.1 mg/kg, F, Mean, n 5): 0.44 mg/dL
CHLORIDE [6, 17]: 98.00 mEq/L
CREATININE [6, 17]: 0.36 mg/dL
POTASSIUM [6, 17]: 6.40 mEq/L
ALBUMIN [6, 18]: 3.5 g/dL (2×) and 3.6 g/dL (2×) and 3.4 g/dL
ALK PHOSPHATASE [6, 18]: 130 IU/L and 160 IU/L
ALT [6, 18]: 63 IU/L and 49 IU/L (2×) and 55 IU/L and 57 IU/L
AST [6, 18]: 95 IU/L and 69 IU/L and 76 IU/L and 54 IU/L and 72 IU/L
BUN [6, 18]: 15 mg/dL (3×) and 16 mg/dL (2×)
CHLORIDE [6, 18]: 97 mEq/L (2×) and 96 mEq/L and 99 mEq/L
CHOLESTEROL [6, 18]: 66 mg/dL and 64 mg/dL and 63 mg/dL and 69 mg/dL and 87 mg/dL
CREATININE [6, 18]: 0.5 mg/dL (2×) and 0.4 mg/dL (3×)
DIR BILIRUBIN [6, 18]: 0 mg/dL
GLOBULIN [6, 18]: 2.7 g/dL and 3 g/dL (2×)
PHOSPHORUS [6, 18]: 9.7 mg/dL and 7.7 mg/dL and 9.6 mg/dL and 9.2 mg/dL and 7 mg/dL
POTASSIUM [6, 18]: 5.5 mEq/L and 5.9 mEq/L and 6 mEq/L and 5.7 mEq/L and 6.3 mEq/L
TOT BILIRUBIN [6, 18]: 0 mg/dL
TOT PROTEIN [6, 18]: 6.3 g/dL (2×) and 6.2 g/dL and 6.6 g/dL and 6.5 g/dL
ALBUMIN [6, 19]: 3.4 g/dL (2×) and 3.1 g/dL and 3.2 g/dL and 3.3 g/dL
ALT [6, 19]: 75 IU/L and 57 IU/L and 65 IU/L and 50 IU/L and 87 IU/L
AST [6, 19]: 66 IU/L and 97 IU/L and 90 IU/L and 92 IU/L
BUN [6, 19]: 15 mg/dL and 18 mg/dL and 12 mg/dL and 17 mg/dL and 21 mg/dL
CHLORIDE [6, 19]: 98 mEq/L and 99 mEq/L (2×) and 100 mEq/L and 97 mEq/L
CHOLESTEROL [6, 19]: 69 mg/dL (2×) and 60 mg/dL and 54 mg/dL and 62 mg/dL
CREATININE [6, 19]: 0.4 mg/dL (3×) and 0.3 mg/dL (2×)
DIR BILIRUBIN [6, 19]: 0 mg/dL (4×) and 0.1 mg/dL
GLOBULIN [6, 19]: 2.6 g/dL and 2.7 g/dL and 2.9 g/dL
GLUCOSE [6, 19]: 160 mg/dL
PHOSPHORUS [6, 19]: 11 mg/dL and 10 mg/dL
POTASSIUM [6, 19]: 6.3 mEq/L (2×) and 5.4 mEq/L and 6 mEq/L and 6.6 mEq/L
SODIUM [6, 19]: 150 mEq/L
TOT BILIRUBIN [6, 19]: 0 mg/dL (4×) and 0.1 mg/dL
TOT PROTEIN [6, 19]: 6.2 g/dL and 5.7 g/dL and 5.9 g/dL and 6.1 g/dL and 6.3 g/dL
CHLORIDE [6, 20]: 98.00 mEq/L
CREATININE [6, 20]: 0.44 mg/dL
CREATININE ([6]; Anatabine 0.75 mg/kg, M, Mean, n 5): 0.36 mg/dL
globulins vs vehicle controls, males ([6]; all anatabine dose levels, nicotine 0.75 mg/kg): marginally higher
total protein vs vehicle controls, males ([6]; all anatabine treatment groups, nicotine 0.75 mg/kg): slightly increased
albumin levels vs control ([6]; males 0.75 and […], females 0.1 and 0.75 mg/kg anatabine): slight increases in albumin levels
severity of thyroiditis (percent of thyroid area infiltrated and damaged) [7]: less severe thyroiditis than control mice
BACE-1 protein expression [8]: reduced BACE expression
activated T cells vs control ([9]; cervical lymph nodes): fewer activated T cells
regulatory T cells vs control ([9]; cervical lymph nodes): more regulatory T cells
regulatory T cells vs control ([9]; cervical lymph nodes, listed as anatabine): fewer T regulatory cells than control mice
ability to present antigens vs control [9]: a lower ability to present antigens
